Assays:
Format in all cases: cell-based
intestinal cell line = test: Intracellular calcium amount after NSP4 and PlnA administration in intestinal cell line; conditions: co-administration of NSP4 and PlnA-containing agent
Description: In an exemplary embodiment of the pharmaceutical agent developed with the present invention, a pharmaceutical agent containing the Lactobacillus plantarum bacteriocin Plantaricin A (PlnA) is used to reduce the intracellular calcium content of the rotavirus NSP4 protein in the intestinal cell line. Thus, the amount of intracellular calcium increased by the NSP4 protein is reduced and, therefore, cell death and ER disruption caused by rotavirus through apoptosis is prevented by this strategy.

IL-10 [1] = test: IL-10 protein levels after NSP4 and PlnA administration; conditions: NSP4 and PlnA-containing agent; for increase of IL-10 protein levels compared to the control group without any application: Graph 3
IL-10 [2] = test: IL-10 mRNA levels (gene expression) after NSP4 and PlnA administration; conditions: NSP4 and PlnA containing agent together, Graph 5

Plantaricin A [PlnA-containing pharmaceutical agent]
decrease of amount of intracellular calcium compared to the NSP4-treated first group (intestinal cell line; 6th hour, Graph 1): 3.75 fold | decrease of amount of intracellular calcium compared to the control group (intestinal cell line; 6th hour, Graph 1): 1.64 fold | amount of intracellular calcium compared to the control group (intestinal cell line; 12 hours, Graph 2): the same amount of calcium was observed in the control group | decrease of amount of intracellular calcium compared to the first group administered NSP4 (intestinal cell line; 12 hours, Graph 2): 2.67 times | increase of IL-10 protein levels compared to the control group without any application (IL-10 [1]; 3rd hour): 2 fold | increase of IL-10 protein levels compared to the control group without any application (IL-10 [1]; 6th hour): 1.43 fold | IL-10 protein levels compared to the control group (IL-10 [1]; 12 hours, Graph 4): no significant difference | increase of IL-10 protein levels compared to the control group (IL-10 [1]; 24 hours, Graph 4): 1.13 fold | increase of IL-10 mRNA level compared to the control group (IL-10 [2]; 12th hour): 0.68 fold | NSP4-induced suppression of IL-10 gene expression (IL-10 [2]): this suppression was reduced
